Structures can show the parent of a compound that is named as a salt.
Tests used:
HCT116 [1] = assay: viability inhibition vs untreated; higher = more cytotoxic; details: 72 h
HCT116 [2] = details: 72 h
Experimental: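 HCT116 control and MTA1-KO (CRISPR) HCT116 cells were seeded in 384-well plates (800 cells/well), treated 16 h later with 237 metabolism-related anticancer drugs at five doses (10 uM, 2 uM, 400 nM, 80 nM, 16 nM) for 72 h, two replicates; viability by CCK8. Values are % inhibition of viability relative to untreated cells, plus fitted IC50.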

Structure (SMILES) | viability inhibition (HCT116 [1]; genotype: MTA1-KO, 16 nM) | viability inhibition (HCT116 [1]; genotype: MTA1-KO, 80 nM) | viability inhibition (HCT116 [1]; genotype: MTA1-KO, 400 nM) | viability inhibition (HCT116 [1]; genotype: MTA1-KO, 2000 nM) | viability inhibition (HCT116 [1]; genotype: MTA1-KO, 10000 nM) | viability inhibition (HCT116 [1]; genotype: control, 16 nM) | viability inhibition (HCT116 [1]; genotype: control, 80 nM) | viability inhibition (HCT116 [1]; genotype: control, 400 nM) | viability inhibition (HCT116 [1]; genotype: control, 2000 nM) | viability inhibition (HCT116 [1]; genotype: control, 10000 nM) | IC50 (HCT116 [2]; genotype: MTA1-KO) | IC50 (HCT116 [2]; genotype: control)
C[C@H](Oc1cc(-c2cnn(C3CCNCC3)c2)cnc1N)c1c(Cl)ccc(F)c1Cl [(S)-crizotinib] | -3.98% | -2.9% | -13.5% | -16.1% | 66.9% | 6.82% | -13.4% | -0.064% | -12.1% | -7.51% | 9.42 µM | > 10 µM
CC(C)n1c(/C=C/[C@H](O)C[C@H](O)CC(=O)O)c(-c2ccc(F)cc2)c2ccccc21 (racemic) [Fluvastatin sodium salt] | 12.1% | 16.7% | 12.8% | 19.3% | 60.4% | 5.71% | 10.5% | 12.1% | 38% | 32.9% | 8.96 µM | > 10 µM
C[C@]12CC[C@H]3[C@@H](CC[C@@]45O[C@@H]4C(O)=C(C#N)C[C@]35C)[C@@H]1CC[C@@H]2O [Trilostane] | -17% | -18.6% | -14.1% | -30.8% | -28.2% | 8.35% | 7.91% | 2.11% | -10.9% | -4.61% | > 10 µM | > 10 µM
CC(=NNC(=S)N1CCC1)c1ccccn1 | 113% | 110% | 111% | 108% | 107% | 107% | 110% | 95.8% | 105% | 111% | < 0.016 µM | < 0.016 µM
CC1(C)OCCn2c1nc1c(N3CCOCC3)nc(-c3cnc(N)nc3)nc12 [GDC0084] | -2.94% | 9.67% | 48% | 77.1% | 83.3% | 7.86% | 5.85% | 42.9% | 78.2% | 76.1% | 0.327 µM | 0.356 µM
O=C(O)c1c[nH]c2cc(Cl)c(-c3ccc(C4(O)CCC4)cc3)cc12 | -7.04% | 0.458% | -9.68% | 0.998% | 72.2% | -1.55% | -12.5% | -12.9% | -5.3% | 7.54% | 3.94 µM | > 10 µM
Nc1nc(Cl)nc2c1ncn2[C@@H]1O[C@H](CO)[C@@H](O)[C@@H]1F [Clofarabine] | -2.4% | 4.43% | 55.5% | 80.4% | 75.8% | -9.53% | -5% | 88.4% | 88.9% | 92.8% | 0.257 µM | 0.141 µM
O=C(O)c1ccc2c(c1)nc(Nc1cccc(Cl)c1)c1ccncc12 [Silmitasertib] | -17.2% | -23.7% | -18.2% | -24.2% | -22% | 7.6% | -9.55% | -4.38% | -8.94% | -1.95% | > 10 µM | > 10 µM
CN(C)CCCCC(=O)Nc1ccc(NC(=S)NC(=O)c2ccc(C(C)(C)C)cc2)cc1 [Tenovin-6] | -14.1% | -19.6% | -23.8% | -20.1% | 43.5% | -8.39% | 1.22% | 8.03% | 5.54% | 67.5% | > 10 µM | 7.71 µM
N#CCCCSC(=N)N [Kevetrin hydrochloride] | 12.4% | 15% | 12.2% | 33.3% | 57.5% | 16.1% | 19.7% | 23% | -4.7% | 23.9% | 2.38 µM | > 10 µM
O=C1NC(=O)/C(=C/c2ccc3nccc(-c4ccncc4)c3c2)S1 | -12% | -22.4% | 10.1% | 64.1% | 99.4% | 1.82% | -12% | 5.41% | 56.4% | 75.1% | 1.21 µM | 2.02 µM
CC1(C)O[C@@H]2[C@@H](CO[C@@]3(COS(N)(=O)=O)OC(C)(C)O[C@@H]23)O1 [Topiramate] | -4.79% | -13.2% | -12.6% | -13% | -6.53% | 0.571% | -0.663% | 3.41% | 3.1% | 12.4% | > 10 µM | > 10 µM
COc1ccc2[nH]c([S@@+]([O-])Cc3ncc(C)c(OC)c3C)nc2c1 [Esomeprazole Magnesium] | 2.7% | 2.87% | 3.11% | 1.54% | 3.86% | 16.3% | 11.1% | 18% | 11.9% | 21.2% | > 10 µM | > 10 µM
